Data published in PMC3894558, “Chemical signatures and new drug targets for gametocytocidal drug development” (Scientific Reports, 2014).
Where a name gives a salt, the structure may show the parent alone. Read-outs that look alike come from different tables or passages of the source. One block for each compound: values may come before it.

Columns and labels:
[1] = test system: P. falciparum 3D7 gametocytes; experiment: alamarBlue gametocyte viability assay, strain 3D7; format: cell-based, Plasmodium falciparum; conditions: for Max Resp: DMSO set at 0%, 100 nM epoxomicin set at -100%
[2] = test system: P. falciparum Dd2 gametocytes; experiment: alamarBlue gametocyte viability assay, strain Dd2; format: cell-based, Plasmodium falciparum
[3] = test system: P. falciparum HB3 gametocytes; experiment: alamarBlue gametocyte viability assay, strain HB3; format: cell-based, Plasmodium falciparum
Protocol: Briefly, gametocyte cultures were set up at 0.1% parasitemia and on days 9–10 treated with 50 mM N-acetylglucosamine (NAG) to block further asexual growth. Stage III–V gametocytes were isolated by Percoll density gradient centrifugation on day 12 and returned to culture for 24 hrs before being used in the assay[9].
Briefly, 2.5 μl/well incomplete medium was dispensed into each well of 1,536-well plates using the Multidrop Combi followed by 23 nl compound transferring using the NX-TR Pintool (WAKO Scientific Solutions, San Diego, CA). Then, 2.5 μl/well of gametocytes was dispensed with a seeding density of 20,000 cells/well using the Multidrop Combi. The assay plates were incubated for 72 hrs at 37°C with 5% CO2.

HepG2 cells = experiment: cells; conditions: Homo sapiens; for Emax: HepG2, read-out: % Max response; for IC50: HepG2, read-out: IC50 in HepG2 cells
Description: Growth medium was made with Dulbecco's Modified Eagle Medium with 10% fetal bovine serum (FBS).

[4] = Malaria Box, stages III-V 3D7 gametocytes
[5] = Malaria Box, stages III-V 3D7 gametocytes, 11 concentrations, 1:3 dilution, read-out: IC50
[6] = Plasmodium falciparum, 3D7, strain profiling, 11 concentrations, 1:3 dilution, three times, read-out: 3D7-gametocytes IC50
[7] = Plasmodium falciparum, DD2, strain profiling, 11 concentrations, 1:3 dilution, three times, read-out: Dd2-gametocytes IC50
[8] = Plasmodium falciparum, HB3, strain profiling, 11 concentrations, 1:3 dilution, three times, read-out: HB3-gametocytes IC50
[9] = Plasmodium falciparum, 3D7, P. falciparum 3D7 gametocytes, mean of at least 3 independent experiments, read-out: Gametocyte IC50
[10] = Plasmodium falciparum, DD2, read-out: Dd2-gametocytes IC50
[11] = Plasmodium falciparum, HB3, read-out: HB3-gametocytes IC50
[12] = strain profiling, 11 concentrations, 1:3 dilution, three times, read-out: 3D7-gametocytes IC50
[13] = strain profiling, 11 concentrations, 1:3 dilution, three times, read-out: Dd2-gametocytes IC50
[14] = strain profiling, 11 concentrations, 1:3 dilution, three times, read-out: HB3-gametocytes IC50

IC50 ([1]; Malaria Box, stages III-V 3D7 gametocytes, 11 concentrations, 1:3 dilution): Inactive
Compound: COC(=O)c1ccc(Cl)c2c1C1C=CCC1C(c1cccc3ccccc13)N2 (stereo not shown) [MMV667489]
Max Resp ([1]; Malaria Box): 1% | Curve Class [1, 4]: 4

IC50 [1, 5]: 4180 nM
Compound: COc1ccc(C2c3ccc4ccccc4c3Oc3ncn(CCCn4ccnc4)c(=N)c32)cc1OC (stereo not shown) [MMV667490]
Max Resp ([1]; Malaria Box): -79% | Curve Class [1, 4]: -1.1

IC50 [1, 5]: 2640 nM
Compound: COc1ccc(C2c3ccc4ccccc4c3Oc3ncn(CCCN(C)C)c(=N)c32)cc1 (stereo not shown) [MMV667491]
Max Resp ([1]; Malaria Box): -95% | Curve Class [1, 4]: -1.1

Compound: CN(N=O)C1=C(NC2CCCCC2)C(=O)c2ccccc2C1=O [MMV667492]
Max Resp ([1]; Malaria Box): -59% | Curve Class [1, 4]: -1.2 | IC50 [1, 5]: 2350 nM

IC50 [1, 6]: 24 nM | IC50 [2, 7]: 37 nM | IC50 [3, 8]: 12 nM
Compound: CO[C@@H]1[C@@H](OC)[C@H](C)[C@@](O)(CC(=O)O)O[C@H]1[C@H](C)[C@H]1O[C@@]2(CC[C@@](C)([C@H]3CC[C@@](C)([C@@H]4O[C@@H]([C@H]5O[C@](C)(O)[C@H](C)C[C@@H]5C)C[C@@H]4O[C@@H]4C[C@H](OC)[C@@H](OC)[C@H](C)O4)O3)O2)C[C@H](O)[C@H]1C [Maduramicin ammonium]

IC50 [1, 9]: 47 nM | IC50 (HepG2 cells): 37200 nM
Compound: CO[C@@H]1[C@@H](OC)[C@H](C)[C@@](O)(CC(=O)O)O[C@H]1[C@H](C)[C@H]1O[C@@]2(CC[C@@](C)([C@H]3CC[C@@](C)([C@@H]4O[C@@H]([C@H]5O[C@](C)(O)[C@H](C)C[C@@H]5C)C[C@@H]4O[C@@H]4C[C@H](OC)[C@@H](OC)[C@H](C)O4)O3)O2)C[C@H](O)[C@H]1C [Maduramicin]
Emax (HepG2 cells): -42%

IC50 [1, 6]: 74 nM | IC50 [2, 7]: 53 nM | IC50 [3, 8]: 59 nM
Compound: OC(c1cc(C(F)(F)F)nc2c(C(F)(F)F)cccc12)C1CCCCN1 (stereo not shown) [Mefloquine hydrochloride]

IC50 [1, 9]: 833 nM | IC50 (HepG2 cells): 29600 nM
Compound: OC(c1cc(C(F)(F)F)nc2c(C(F)(F)F)cccc12)C1CCCCN1 (stereo not shown) [Mefloquine]
Emax (HepG2 cells): -97%

IC50 [1, 9]: 47 nM | IC50 [2, 7]: 47 nM | IC50 [3, 8]: 42 nM | IC50 (HepG2 cells): 148 nM
Compound: CCNC(=O)c1noc(-c2cc(C(C)C)c(O)cc2O)c1-c1ccc(CN2CCOCC2)cc1 [NVP-AUY922]
Emax (HepG2 cells): -88%

Compound: CC[C@@H](C(=O)O)[C@@H]1O[C@@H]([C@@H](C)[C@H](O)[C@H](C)C(=O)[C@H](CC)[C@H]2O[C@]3(C=C[C@@H](O)[C@]4(CC[C@@](C)([C@H]5CC[C@](O)(CC)[C@H](C)O5)O4)O3)[C@H](C)C[C@@H]2C)[C@@H](C)C[C@@H]1C [Narasin]
IC50 [1, 9]: 50 nM | IC50 [2, 10]: 76 nM | IC50 [3, 8]: 136 nM | Emax (HepG2 cells): -98% | IC50 (HepG2 cells): 27000 nM

Compound: CCN(CC)Cc1nccn1-c1ccc([N+](=O)[O-])cc1C(=O)c1ccccc1Cl [Nizofenone]
IC50 [1, 6]: 23500 nM | IC50 [2, 10]: 16600 nM | IC50 [3, 11]: 14800 nM

Compound: COC(=O)C[C@](O)(CCCC(C)(C)O)C(=O)O[C@@H]1C(OC)=C[C@]23CCCN2CCc2cc4c(cc2[C@H]13)OCO4 [Omacetaxine mepesuccinate]
IC50 [1, 6]: 59 nM | IC50 [2, 7]: 37 nM | IC50 [3, 8]: 17 nM

IC50 [1, 9]: 935 nM | IC50 [2, 7]: 118 nM | IC50 [3, 8]: 148 nM | IC50 (HepG2 cells): 372 nM
Compound: Cc1[nH]c2ccccc2c1CCNCc1ccc(/C=C/C(=O)NO)cc1 [Panobinostat]
Emax (HepG2 cells): -74%

Compound: COc1cc(NC(C)CCCN)c2ncccc2c1 (stereo not shown) [Primaquine]
IC50 ([2]; Plasmodium falciparum, DD2, read-out: Dd2-gametocytes IC50, strain profiling, 11 concentrations, 1:3 dilution, three times): 1080 nM | IC50 ([2]; read-out: Dd2-gametocytes IC50, strain profiling, 11 concentrations, 1:3 dilution, three times, listed as PQ): 1080 nM | IC50 ([3]; read-out: HB3-gametocytes IC50, strain profiling, 11 concentrations, 1:3 dilution, three times, listed as PQ): 680 nM | IC50 (HepG2 cells): 17800 nM

IC50 [1, 9]: 1050 nM | IC50 [2, 7]: 2640 nM | IC50 [3, 8]: 1480 nM | IC50 (HepG2 cells): 11800 nM
Compound: COc1ccc(C[C@H](N)C(=O)N[C@H]2[C@@H](O)[C@H](n3cnc4c(N(C)C)ncnc43)O[C@@H]2CO)cc1 [Puromycin]
Emax (HepG2 cells): -71%

IC50 [1, 6]: 1870 nM | IC50 [2, 7]: 6620 nM | IC50 [3, 8]: 2640 nM
Compound: COc1ccc2nc3cc(Cl)ccc3c(Nc3cc(CN4CCCC4)c(O)c(CN4CCCC4)c3)c2n1 [Pyronaridine]

Compound: C/C=C1\NC(=O)[C@H]2CSSCC/C=C/[C@H](CC(=O)N[C@H](C(C)C)C(=O)N2)OC(=O)[C@H](C(C)C)NC1=O [Romidepsin]
IC50 [1, 6]: 264 nM | IC50 ([1]; Plasmodium falciparum, P. falciparum 3D7 gametocytes, mean of at least 3 independent experiments, read-out: Gametocyte IC50): 637 nM | IC50 [2, 10]: 187 nM | IC50 [3, 11]: 148 nM | Emax (HepG2 cells): -98% | IC50 (HepG2 cells): 74 nM

IC50 [1, 12]: 935 nM | IC50 [2, 13]: 526 nM | IC50 [3, 14]: 264 nM
Compound: Cl.Cl.Cl.Cl.Cl.Cl.N.N.N.N.N.N.N.N.N.N.N.N.N.N.[O-2].[O-2].[Ru+3].[Ru+3].[Ru+4] [Ruthenium red]

Compound: CCN(CC)C(=S)SSC(=S)N(CC)CC [Tetraethylthiuram disulfide]
IC50 [1, 12]: 96 nM | IC50 [2, 13]: 296 nM | IC50 [3, 14]: 148 nM

IC50 ([1]; Plasmodium falciparum, 3D7, 3D7 gametocytes, stages III-V, high throughput viability assay, read-out: IC50 against gametocytes): 9 nM
Compound: CCC(=O)N1CCN(c2ccc(-n3c(=O)ccc4cnc5ccc(-c6ccc(N)nc6)cc5c43)cc2C(F)(F)F)CC1 [WWH030]

Compound: Salinomycin monosodium
IC50 [1, 12]: 194 nM | IC50 [2, 13]: 296 nM | IC50 [3, 14]: 469 nM
